Where two headings read alike, the source gives them in different places. Each block holds one molecule with its values, some of them ahead of it.
How the values were obtained:
[1] = biological target: T1, turkey β3C-adrenoceptor (tβ3C) (Meleagris gallopavo, UniProt A0A803YLI8); test: 3H-CGP12177 whole cell binding, CHO tβ3C cells
[2] = biological target: T2, turkey β4C-adrenoceptor (tβ4C) (Meleagris gallopavo, UniProt P43141); test: cell-based; assay type: binding
T2 construct: expressed in transfected cells

Human β3-adrenoceptor = settings: Human β3, given for comparison; ref 25 and 30; cited from earlier work
Human β2-adrenoceptor = biological target: Human β2-adrenoceptor; set-up: method as in PMID 15655528, PMID 20590599; settings: Human β2, given for comparison; ref 25 and 30; cited from earlier work
Human β1-adrenoceptor = biological target: Human β1-adrenoceptor; set-up: method as in PMID 15655528, PMID 20590599; settings: Human β1, given for comparison; ref 25 and 30; cited from earlier work
[3] = biological target: T1, turkey β3C-adrenoceptor (tβ3C); test: CRE-SPAP production, CHO tβ3C cells; assay type: cell-based; settings: for Kd: CHO tβ3C cells
[4] = biological target: T2, turkey β4C-adrenoceptor (tβ4C); test: cell-based; assay type: cell-based
[5] = competition with 3H-CGP12177, whole cells, CHO tβ3C, given as log KD, mean ± s.e.m., read-out: Log KD (converted)
[6] = competition with 3H-CGP12177, whole cells, CHO tβ4C, given as log KD, mean ± s.e.m., read-out: Log KD (converted)
[7] = competition with 3H-CGP12177, whole cells, CHO tβ3C, given as log KD, mean ± s.e.m.
[8] = competition with 3H-CGP12177, whole cells, CHO tβ4C, given as log KD, mean ± s.e.m.

T2 sequence (P43141 whole entry): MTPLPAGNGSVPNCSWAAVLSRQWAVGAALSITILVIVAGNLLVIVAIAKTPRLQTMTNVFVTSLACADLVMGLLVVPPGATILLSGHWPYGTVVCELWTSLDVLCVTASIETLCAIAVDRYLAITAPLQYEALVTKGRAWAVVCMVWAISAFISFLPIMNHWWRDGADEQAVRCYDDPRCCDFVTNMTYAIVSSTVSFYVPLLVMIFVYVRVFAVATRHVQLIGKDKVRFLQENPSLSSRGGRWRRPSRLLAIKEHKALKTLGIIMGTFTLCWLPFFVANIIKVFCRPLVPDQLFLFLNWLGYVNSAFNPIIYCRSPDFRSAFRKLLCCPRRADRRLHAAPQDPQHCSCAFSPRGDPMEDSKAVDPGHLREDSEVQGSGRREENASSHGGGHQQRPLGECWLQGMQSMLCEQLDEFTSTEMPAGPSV
T1 sequence (A0A803YLI8 entry or part of it): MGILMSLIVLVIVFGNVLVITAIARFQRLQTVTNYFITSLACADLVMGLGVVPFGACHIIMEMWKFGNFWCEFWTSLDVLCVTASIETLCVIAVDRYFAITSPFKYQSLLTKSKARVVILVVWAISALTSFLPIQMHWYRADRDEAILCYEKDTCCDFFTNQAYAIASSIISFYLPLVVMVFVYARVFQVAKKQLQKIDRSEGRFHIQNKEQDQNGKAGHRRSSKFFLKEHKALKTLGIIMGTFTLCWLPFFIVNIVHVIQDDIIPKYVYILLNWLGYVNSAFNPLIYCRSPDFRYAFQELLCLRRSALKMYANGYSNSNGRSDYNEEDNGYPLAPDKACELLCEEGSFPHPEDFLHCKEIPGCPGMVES

Kd [1]: 3.63 nM
Kd [2, 6]: 14.1 nM
SMILES: C=CCc1ccccc1OCC(O)CNC(C)C (centres unmarked) [Alprenolol]
Log KD (Human β3-adrenoceptor): −6.93

Kd [1, 5]: 17800 nM
Kd [2, 6]: 17400 nM
SMILES: CC(C)NCC(O)COc1ccc(CC(N)=O)cc1 (centres unmarked) [Atenolol]

Kd [1, 5]: 2630 nM
Kd [2, 6]: 550 nM
SMILES: CC(C)NCC(O)COc1ccc(COCCOC(C)C)cc1 (centres unmarked) [Bisoprolol]

Kd [1]: 0.191 nM
Kd [2, 6]: 0.389 nM
SMILES: CC(C)(Cc1c[nH]c2ccccc12)NCC(O)COc1ccccc1C#N (centres unmarked) [Bucindolol]
Log KD (Human β3-adrenoceptor): −8.04
Log KD (Human β2-adrenoceptor): −9.99
Log KD (Human β1-adrenoceptor): −9.31

Kd [1, 5]: 0.851 nM
Kd [2, 6]: 6.61 nM
SMILES: Cc1ccc(Cl)c(OCC(O)CNC(C)(C)C)c1 (centres unmarked) [Bupranolol]
Log KD (Human β3-adrenoceptor): −7.04
Log KD (Human β1-adrenoceptor): −8.51

Kd [1]: 3980 nM
Kd ([3]; Log KD CGP20712A, vs agonist BRL37344, CRE-SPAP): 3090 nM
Kd ([3]; Log KD CGP20712A, vs agonist CGP12177, CRE-SPAP): 2690 nM
Kd ([3]; Log KD CGP20712A, vs agonist adrenaline, CRE-SPAP): 4570 nM
Kd ([3]; Log KD CGP20712A, vs agonist cimaterol, CRE-SPAP): 3470 nM
Kd ([3]; Log KD CGP20712A, vs agonist clenbuterol, CRE-SPAP): 1780 nM
Kd ([3]; Log KD CGP20712A, vs agonist dobutamine, CRE-SPAP): 7410 nM
Kd ([3]; Log KD CGP20712A, vs agonist fenoterol, CRE-SPAP): 2450 nM
Kd ([3]; Log KD CGP20712A, vs agonist formoterol, CRE-SPAP): 3630 nM
Kd ([3]; Log KD CGP20712A, vs agonist isoprenaline, CRE-SPAP): 3720 nM
Kd ([3]; Log KD CGP20712A, vs agonist noradrenaline, CRE-SPAP): 5250 nM
Kd ([3]; Log KD CGP20712A, vs agonist salbutamol, CRE-SPAP): 3240 nM
Kd ([3]; Log KD CGP20712A, vs agonist salmeterol, CRE-SPAP): 6310 nM
SMILES: Cn1cc(C(F)(F)F)nc1-c1ccc(OCC(O)CNCCOc2ccc(O)c(C(N)=O)c2)cc1 (centres unmarked) [CGP20712A]

Kd [1, 5]: 0.012 nM
Kd [2, 6]: 0.0537 nM
SMILES: CC(C)NCC(O)COc1cccc2[nH]c3ccccc3c12 (centres unmarked) [Carazolol]
Log KD (Human β3-adrenoceptor): −8.35

Kd [2, 6]: 0.123 nM
SMILES: COc1ccccc1OCCNCC(O)COc1cccc2[nH]c3ccccc3c12 (centres unmarked) [Carvedilol]

Kd [1]: 1.17 nM
Kd ([3]; Log KD ICI118551, vs agonist BRL37344, CRE-SPAP): 0.49 nM
Kd ([3]; Log KD ICI118551, vs agonist CGP12177, CRE-SPAP): 0.316 nM
Kd ([3]; Log KD ICI118551, vs agonist adrenaline, CRE-SPAP): 1.62 nM
Kd ([3]; Log KD ICI118551, vs agonist cimaterol, CRE-SPAP): 0.398 nM
Kd ([3]; Log KD ICI118551, vs agonist clenbuterol, CRE-SPAP): 0.339 nM
Kd ([3]; Log KD ICI118551, vs agonist dobutamine, CRE-SPAP): 1.15 nM
Kd ([3]; Log KD ICI118551, vs agonist fenoterol, CRE-SPAP): 0.457 nM
Kd ([3]; Log KD ICI118551, vs agonist formoterol, CRE-SPAP): 0.513 nM
Kd ([3]; Log KD ICI118551, vs agonist isoprenaline, CRE-SPAP): 2.51 nM
Kd ([3]; Log KD ICI118551, vs agonist noradrenaline, CRE-SPAP): 1.38 nM
Kd ([3]; Log KD ICI118551, vs agonist salbutamol, CRE-SPAP): 0.49 nM
Kd ([3]; Log KD ICI118551, vs agonist salmeterol, CRE-SPAP): 0.617 nM
SMILES: Cc1ccc(OCC(O)C(C)NC(C)C)c2c1CCC2 (centres unmarked) [ICI118551]

The remaining lines, values behind:

SMILES: CCCC(=O)Nc1ccc(OCC(O)CNC(C)C)c(C(C)=O)c1 (centres unmarked) [Acebutolol]
Kd [1, 5]: 4070 nM
Kd [2, 6]: 3890 nM

SMILES: Br.COC(=O)COc1ccc(CC(C)NC[C@H](O)c2cccc(Cl)c2)cc1 (some centres unmarked) [BRL35135A]
Log KD (Human β3-adrenoceptor): −6.73
Log KD [1, 7]: −7.42±0.06
Log KD [2, 8]: −6.39±0.03
Log KD (Human β2-adrenoceptor): −7.38
Log KD (Human β1-adrenoceptor): −6.08

SMILES: CC(C)NCC(O)COc1ccc(CCOCC2CC2)cc1 (centres unmarked) [Betaxalol]
Log KD (Human β3-adrenoceptor): −5.97
Kd [2, 6]: 575 nM

SMILES: COc1ccc(OC)c(C(O)C(C)NC(C)(C)C)c1 (centres unmarked) [Butoxamine]
Log KD (Human β3-adrenoceptor): >−4
Kd [1]: 1020 nM
Kd [2, 6]: 12600 nM
Log KD (Human β2-adrenoceptor): −6.23
Log KD (Human β1-adrenoceptor): −4.85

SMILES: C[C@H](Cc1ccc2c(c1)OC(C(=O)[O-])(C(=O)[O-])O2)NC[C@H](O)c1cccc(Cl)c1.[Na+].[Na+] [CL316243]
Log KD (Human β3-adrenoceptor): −5.11
Log KD [1, 7]: >−4
Log KD [2, 8]: >−4
Log KD (Human β1-adrenoceptor): >−3

SMILES: CC(C)NCC(O)c1ccc(N)c(C#N)c1 (centres unmarked) [Cimaterol]
Log KD (Human β3-adrenoceptor): −5.28
Log KD (Human β2-adrenoceptor): −7.26
% isop max ([4]; CRE-SPAP, % of 10 µM isoprenaline maximum, CHO tβ4C cells): 98.2±2.3%
Emax ([3]; read-out: % isop max): 103 ± 2.2%

SMILES: COc1ccc(CCNC[C@H](O)c2ccc(O)cc2)cc1OC [Denopamine]
Log KD (Human β3-adrenoceptor): −5.30
Kd [1, 5]: 2340 nM
Kd [2, 6]: 1120 nM
Log KD (Human β2-adrenoceptor): −5.83

SMILES: COc1ccc(CC(C)NCC(O)c2ccc(O)c(NC=O)c2)cc1 (centres unmarked) [Formoterol]
Log KD (Human β3-adrenoceptor): −5.82
Kd [1]: 11 nM
Kd [2]: 20 nM
EC50 [4]: 0.166 nM
EC50 [3]: 0.0447 nM

SMILES: O=C(O)COc1ccc(OCCNC[C@H](O)COc2ccccc2)cc1 [ICI215001]
Log KD (Human β3-adrenoceptor): −6.63
Log KD [1, 7]: −5.31±0.09
Log KD [2, 8]: −6.55±0.06

Reference: article PMC2994877, “A Full Pharmacological Analysis of the Three Turkey β-Adrenoceptors and Comparison with the Human β-Adrenoceptors” (PLoS ONE, 2010)
